Test system: HIV
Assay: HIV infection in cell culture (syncytium formation in HIV-infected PBLs, modified method of Pauwels et al.)
Type: cell-based
Details: Human immunodeficiency virus 1, Lymphocyte, 72 h; HIV-infected normal human blood lymphocytes (PBL's); concentration suppressing 50% (ca. 10 Syncytien) of virus-induced syncytia; microscopic read-out day 3 to 6 after infection, 37°C
Method: Der HIV-Test wurde mit geringen Modifikationen nach der Methode von Pauwels et al. [vgl. Journal of Virological Methods 20, (1988), 309-321] durchgeführt.
Normale menschliche Blutlymphozyten (PBL's) wurden über Ficoll-Hypaque angereichert und im RPMI 1640, 20% fötales Kälberserum mit Phythaemagglutinin (90 µg/ml) und Interleukin-2 (40 U/ml) stimuliert. Zur Infektion mit dem infektiösen HIV wurden PBL's pelletiert und das Zellpellet wurde anschließend in 1 ml HIV-Virusadsorptionslösung suspendiert und 1 Stunde bei 37°C inkubiert.
Die Virusadsorptionslösung wurde zentrifugiert und das infizierte Zellpellet in Wachstumsmedium aufgenommen, so daß 1 x 10^5 Zellen pro ml eingestellt waren. Die derart infizierten Zellen wurden zu 1 x 10^4 Zellen/Napf in die Näpfe von 96er Mikrotiterplatten pipettiert.
Die erste vertikale Reihe der Mikrotiterplatte enthielt nur Wachstumsmedium und Zellen, die nicht infiziert, aber ansonsten genauso wie oben beschrieben, behandelt worden waren (Zellkontrolle). Die zweite vertikale Reihe der Mikrotiterplatte erhielt nur HIV-infizierte Zellen (Viruskontrolle) in Wachstumsmedium. Die übrigen Näpfe enthielten die erfindungsgemäßen Verbindungen in unterschiedlichen Konzentrationen, ausgehend von den Näpfen der 3. vertikalen Reihe der Mikrotiterplatte, von der die Prüfsubstanzen in 2er Schritten 2^10fach verdünnt wurden.
Die Testansätze wurden so lange bei 37°C inkubiert, bis in der unbehandelten Viruskontrolle die für das HIV typische Syncytienbildung auftrat (zwischen Tag 3 und 6 nach Infektion), die dann mikroskopisch ausgewertet wurde. In der unbehandelten Viruskontrolle resultierten unter diesen Testbedingungen etwa 20 Syncytien, während die unbehandelte Zellkontrolle keine Syncytien aufwies.
Die IC50-Werte wurden als die Konzentration der erfindungsgemäßen Verbindungen ermittelt, bei der 50% (ca. 10 Syncytien) der virusinduzierten Syncytien durch die Behandlung mit der erfindungsgemäßen Verbindung unterdruckt waren.

| SMILES | IC50 |
| --- | --- |
| COc1cccc(N2CCN(c3cc4c(cc3F)c(=O)c(C(=O)O)cn4-c3ccc(Cn4ccnn4)cc3)CC2)c1 [Beispiel 8] | 3 µM |
| O=C(O)c1cn(-c2ccc(Cn3ccnn3)cc2)c2cc(N3CCN(c4cccc(Cl)c4)CC3)c(F)cc2c1=O [Beispiel 14] | 0.7 µM |
| O=C(O)c1cn(-c2ccc(Cn3ccnn3)cc2)c2nc(N3CCN(c4ccccc4)CC3)c(F)cc2c1=O [Beispiel 20, 6-Fluor-1,4-dihydro-4-oxo-7-(4-phenylpiperazin-1-yl)-1-[4-(1H-1,2,3-triazol-1-yl-methyl)-phenyl]-1,8-naphthyridin-3-carbonsäure] | 0.2 µM |
| O=C(O)c1cn(-c2ccc(Cn3ccnn3)cc2)c2nc(N3CCN(c4cccc(Cl)c4)CC3)c(F)cc2c1=O [Beispiel 23] | 0.4 µM |
| O=C(O)c1cn(-c2ccc(Cn3nccn3)cc2)c2cc(N3CCN(c4cccc(Cl)c4)CC3)c(F)cc2c1=O [Beispiel 31] | 0.7 µM |
| O=C(O)c1cn(-c2ccc(Cn3cncn3)cc2)c2cc(N3CCN(c4ccccc4)CC3)c(F)cc2c1=O [Beispiel 39, 6-Fluor-1,4-dihydro-4-oxo-7-(4-phenylpiperazin-1-yl)-1-[4-(1H-1,2,4-triazol-1-yl-methyl)phenyl]-3-chinolin-carbonsäure] | 0.25 µM |
| O=C(O)c1cn(-c2ccc(Cn3cncn3)cc2)c2nc(N3CCN(c4ccccc4)CC3)c(F)cc2c1=O [Beispiel 50, 6-Fluor-1,4-dihydro-4-oxo-7-(4-phenylpiperazin-1-yl)-1-[4-(1H-1,2,4-triazol-1-yl-methyl)phenyl]-1,8-naphthyridin-3-carbonsäure] | 0.5 µM |
| O=C(O)c1cn(-c2ccc(Cn3cncn3)cc2)c2nc(N3CCN(c4ccc(F)cc4)CC3)c(F)cc2c1=O [Beispiel 51] | 0.2 µM |
| O=C(O)c1cn(-c2cccc(Cn3ccnn3)c2)c2cc(N3CCN(c4cccc(Cl)c4)CC3)c(F)cc2c1=O [Beispiel 69] | 0.7 µM |
| O=C(O)c1cn(-c2cccc(Cn3cncn3)c2)c2nc(N3CCN(c4ccc(Cl)cc4)CC3)c(F)cc2c1=O [Beispiel 92] | 0.6 µM |
| CCOC(=O)c1cn(-c2ccccc2Cn2nccn2)c2cc(N3CCN(c4cccc(Cl)c4)CC3)c(F)cc2c1=O [Beispiel 113] | 2 µM |
| CCOc1ccccc1N1CCN(c2c(F)cc3c(=O)c(C(=O)O)cn(-c4ccc(Cn5cncn5)cc4)c3c2F)CC1 [Beispiel 146] | 0.7 µM |
